# Marks after values point to notes of the source that are not given here.
# Experiments:
# [1] = Dissolution of solid phase cystine by cystine binding drugs in normal urine; parameters: species or system human; settings: for molar proportion of cystine dissolved per drug, urine: normal urine; for Regression slope of cystine uptake on drug molarity, URINE: ten normal urine samples, 48 hours, 37° C.
# Procedure: (§1) Using the same incubation buffer and cystine-dissolving agent systems as for the initial solid phase dissolution assay given in Example 1, increasing amounts of D-penicillamine, tiopronin, or captopril were added to 25 ml aliquots of the incubation buffer. A fixed amount of cystine was added; for tiopronin and D-penicillamine, about 40 mg, and for captopril about 20 mg. […] Incubation was carried out as in Example 1. After 48 hours, the pellet and supernatant were separated by centrifugation, the pellet was dissolved in 25 ml of cystine-dissolving agent, an alkalinizing buffer of 0.1 M sodium carbonate, pH 9.9, (Sigma Aldrich Corp, Catalog # S-7795), to form a final cystine solution. Cystine concentration was determined both in the supernatant and the final cystine solution according to the procedure given in Example 3. This same protocol was repeated using the ten normal urine samples employed in the basic solid phase dissolution study described in Example 1.
# (§2) Cystine concentrations in either the incubation buffer or normal urine after removal of the residual solid phase cystine, or the final cystine solution after the dissolution of the solid phase cystine in a cystine-dissolving agent as shown in Example 1 and 2 were measured using the modified cyanide-nitroprusside method for quantifying urinary cystine concentration as reported by Nakagawa and Coe (Nakagawa, Y. and Coe, F. 1999. Clin Chim Acta 289:57–68). A 100 microliter aliquot was mixed with 400 microliters of water and 1 milliliter of 0.01 M sodium phosphate buffer containing 0.15 mol/liter NaCl, pH 7.3 (PBS). After adding 300 microliters of 10% NaCN aqueous solution (w/v), the sample was incubated for twenty minutes at room temperature. Color was developed by adding 100 microliters of 20% sodium nitroprusside aqueous solution (w/v). Within 20 seconds of the sodium nitroprusside addition, color intensity was then measured at 521 nm using a Beckman spectrophotometer (model DU 640), and cystine concentration was calculated by comparison to a standard curve which was prepared with each assay.
# (§3) Routine means and t tests and linear regression analysis used standard statistical software (Systat, SPSS Corp., Chicago, Ill.). Differences in slopes of uptake with drugs were assessed by multivariate analysis in which cystine uptake was the dependent variable; drug molarity, the independent variable; either buffer vs urine or drug type, the categorical variable; and probability of homogeneity of slopes between the groups, defined by the categorical variable tested. Simple regression analysis was used to obtain the actual values of the slopes.
# [2] = Dissolution of solid phase cystine by cystine binding drugs in incubation buffer; settings: for Regression slope of cystine uptake on drug molarity, BUFFER: incubation buffer, 48 hours, 37° C.
# Procedure: as §1, §2, §3
# [3] = general statement; cited from earlier work
Structure (SMILES),"molar proportion of cystine dissolved per drug, urine [1]","Regression slope of cystine uptake on drug molarity, URINE [1]","molar proportion of cystine dissolved per drug, buffer [2]","Regression slope of cystine uptake on drug molarity, BUFFER [2]",solubility of cystine in average normal urine [3]
CC(C)(S)[C@@H](N)C(=O)O [D-penicillamine],0.21±0.008 mole/mole,0.21 ± 0.01,0.24±0.01 mole/mole,0.25 ± 0.01,–
C[C@H](CS)C(=O)N1CCC[C@H]1C(=O)O [captopril],0.35±0.01 mole/mole,0.35 ± 0.01#,0.36±0.04 mole/mole,0.36 ± 0.04#,–
N[C@@H](CSSC[C@H](N)C(=O)O)C(=O)O [cystine],–,–,–,–,200 to 400 µg/mL
CC(S)C(=O)NCC(=O)O (stereo not shown) [tiopronin],0.36±0.01 mole/mole,0.36 ± 0.01,0.41±0.02 mole/mole,0.41 ± 0.02#,–
